Test results published in paper PMC3433420 (PLoS ONE, 2012).
Residues, ends and D or L forms follow the SMILES beside them.

Legend:
[1] = target: T1, PTPN11-NC tandem SH2 domains (Homo sapiens, UniProt Q06124); test: FP saturation binding assay
T1 sequence (Q06124 6-216 limits assumed): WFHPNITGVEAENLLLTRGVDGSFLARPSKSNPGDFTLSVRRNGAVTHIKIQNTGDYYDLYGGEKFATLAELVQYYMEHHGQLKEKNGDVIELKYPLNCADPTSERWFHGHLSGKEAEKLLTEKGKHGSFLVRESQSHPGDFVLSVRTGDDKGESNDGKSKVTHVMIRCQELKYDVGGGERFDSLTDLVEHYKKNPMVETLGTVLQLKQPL

SH2D1A SH2 domain = target: T2, SH2D1A SH2 domain (Homo sapiens, UniProt O60880); test: FP saturation binding assay
T2 sequence (O60880 6-104 limits assumed): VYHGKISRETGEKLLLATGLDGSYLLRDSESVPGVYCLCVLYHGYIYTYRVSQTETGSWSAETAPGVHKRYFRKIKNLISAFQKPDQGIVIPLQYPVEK

SH2D1B SH2 domain = target: T3, SH2D1B SH2 domain (Homo sapiens, UniProt O14796); test: FP saturation binding assay
T3 sequence (O14796 5-101 limits assumed): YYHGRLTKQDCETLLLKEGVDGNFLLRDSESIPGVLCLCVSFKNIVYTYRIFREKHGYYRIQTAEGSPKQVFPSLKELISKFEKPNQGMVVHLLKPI

[2] = target: SYK-NC tandem SH2 domains (Homo sapiens, UniProt P43405); test: FP saturation binding assay
NCK2 SH2 domain = NCK2 SH2 domain (Homo sapiens, UniProt O43639); test: FP saturation binding assay
Chain of NCK2 SH2 domain (O43639 285-380 limits assumed): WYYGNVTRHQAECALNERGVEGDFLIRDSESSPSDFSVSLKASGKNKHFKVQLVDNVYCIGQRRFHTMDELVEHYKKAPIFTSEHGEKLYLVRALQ

YES1 SH2 domain = target: T4, YES1 SH2 domain (Homo sapiens, UniProt P07947); test: FP saturation binding assay; settings: high-confidence ErbB interactions
T4 construct: 6X His; thioredoxin; made in house; host or cells: BL21(DE3)pLysS E. coli
T4 sequence (P07947 158-255 limits assumed): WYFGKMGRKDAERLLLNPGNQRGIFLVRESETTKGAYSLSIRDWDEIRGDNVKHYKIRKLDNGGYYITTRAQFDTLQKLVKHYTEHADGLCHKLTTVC
Summary of the method: (§1)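 Rhodamine-labeled phosphopeptides (10 nM final) titrated with SH2 domain protein (0.002–10 µM, 12 points) in 20 mM HEPES, 100 mM KCl, 0.1% Tween-20, 5 mM DTT, pH 7.8; 20 min, room temperature, dark. FP read at 530/555 nm; KD fitted by nonlinear regression after thioredoxin background correction and outlier removal.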

[3] = target: T5, PLCG1-NC tandem SH2 domains (Homo sapiens, UniProt P19174); test: FP saturation binding assay; settings: Protein PLCG1-NC; FP saturation binding, high-confidence ErbB interactions; mean over replicate hits
T5 construct: the tandem protein was included in our analysis with all internal amino acids linking the domains; 6X His; thioredoxin; made in house; host or cells: E. coli BL21(DE3)pLysS
T5 sequence (P19174 550-756 limits assumed): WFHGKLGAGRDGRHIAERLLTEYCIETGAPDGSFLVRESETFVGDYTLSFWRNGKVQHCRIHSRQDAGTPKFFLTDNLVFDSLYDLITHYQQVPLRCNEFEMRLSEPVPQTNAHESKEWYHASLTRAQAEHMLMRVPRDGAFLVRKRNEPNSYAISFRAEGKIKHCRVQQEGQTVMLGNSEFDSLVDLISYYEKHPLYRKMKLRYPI

[4] = target: PIK3R2-NC tandem SH2 domains (Homo sapiens, UniProt O00459); test: FP saturation binding assay
Chain of PIK3R2-NC tandem SH2 domains (O00459 330-716 limits assumed): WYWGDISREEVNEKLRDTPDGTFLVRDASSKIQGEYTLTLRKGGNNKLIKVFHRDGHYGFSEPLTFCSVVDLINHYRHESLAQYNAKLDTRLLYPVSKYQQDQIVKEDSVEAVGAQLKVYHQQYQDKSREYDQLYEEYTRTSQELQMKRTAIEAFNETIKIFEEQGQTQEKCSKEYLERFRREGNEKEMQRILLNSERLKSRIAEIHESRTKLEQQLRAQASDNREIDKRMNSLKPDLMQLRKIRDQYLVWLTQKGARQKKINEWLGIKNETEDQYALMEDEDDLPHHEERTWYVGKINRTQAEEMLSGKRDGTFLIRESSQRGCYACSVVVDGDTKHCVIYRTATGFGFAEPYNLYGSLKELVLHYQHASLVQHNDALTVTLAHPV

RASA1-N SH2 domain [5] = target: T6, RASA1-N SH2 domain (Homo sapiens, UniProt P20936); test: FP saturation binding assay
T6 sequence (P20936 181-272 limits assumed): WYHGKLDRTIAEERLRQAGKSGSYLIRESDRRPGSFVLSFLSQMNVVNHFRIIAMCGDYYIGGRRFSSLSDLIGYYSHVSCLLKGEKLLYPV

SHC1-PTB domain = target: T7, SHC1-PTB domain (Homo sapiens, UniProt P29353); test: FP saturation binding assay
T7 sequence (P29353 156-339 limits assumed): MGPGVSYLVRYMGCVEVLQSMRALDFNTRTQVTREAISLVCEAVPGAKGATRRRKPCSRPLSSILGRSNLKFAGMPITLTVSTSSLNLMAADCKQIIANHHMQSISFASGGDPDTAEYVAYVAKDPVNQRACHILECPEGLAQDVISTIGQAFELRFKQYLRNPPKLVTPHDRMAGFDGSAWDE

GRB7 SH2 domain = GRB7 SH2 domain (Homo sapiens, UniProt Q14451); test: FP saturation binding assay; settings: KD for GRB7, FP saturation assay
Chain of GRB7 SH2 domain (Q14451 431-527 limits assumed): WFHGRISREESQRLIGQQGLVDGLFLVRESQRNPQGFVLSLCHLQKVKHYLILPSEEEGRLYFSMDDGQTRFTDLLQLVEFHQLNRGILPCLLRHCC

RASA1-N SH2 domain [6] = target: T6, RASA1-N SH2 domain; test: FP competition assay; type: binding; set-up: 6X His; thioredoxin; made in house; host or cells: E. coli BL21(DE3)pLysS; settings: RASA1N; labeled peptide ErbB2pY1196; Fig. 3 graph A; read-out: Ki (obs)
Description: Unlabeled phosphopeptides were synthesized with some modifications to the previously described protocol. […] Unlabeled competitor peptides were prepared at 11 serial 1∶3 dilutions in assay buffer; one control with no unlabeled competitor peptides was also included with each experimental set. The fluorescent peptide, protein, and unlabeled peptide mixtures were allowed to incubate for a minimum of 20 minutes in 384-well plates and polarization signals were measured using the Analyst GT multimode reader as previously described above. Inhibition curves were constructed by four-parameter log-logistic regression using the “drc” package in R with the parameters for maximum and minimum fluorescence fixed according to Z’ factor positive and negative control values. IC50 values were estimated from these fits under a one-site competition binding model and Ki calculated according to the equation developed by.

SRC SH2 domain = target: T8, SRC SH2 domain (Homo sapiens, UniProt P12931); test: FP saturation binding assay; settings: protein SRC, high-confidence ErbB interactions, mean of replicate hits
T8 construct: between the c-Src SH2 domain and ErbB1 in our FP assay; 6X His; thioredoxin; made in house; host or cells: E. coli BL21(DE3)pLysS
T8 sequence (P12931 151-248 limits assumed): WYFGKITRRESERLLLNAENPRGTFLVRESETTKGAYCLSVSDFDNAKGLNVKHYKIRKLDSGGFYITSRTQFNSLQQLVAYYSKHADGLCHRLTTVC
Summary of the method: as §1

PIK3R1-N SH2 domain = target: T9, PIK3R1-N SH2 domain (Homo sapiens, UniProt P27986); test: biochemical; type: binding; settings: protein PIK3R1-N; high-confidence ErbB interactions; mean of replicate hits
T9 construct: thioredoxin; made in house; host or cells: E. coli BL21(DE3)pLysS
T9 sequence (P27986 333-428 limits assumed): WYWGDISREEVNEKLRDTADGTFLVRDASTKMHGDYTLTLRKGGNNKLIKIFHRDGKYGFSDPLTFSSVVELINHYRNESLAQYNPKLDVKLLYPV

PIK3R3-N SH2 domain = target: T10, PIK3R3-N SH2 domain (Homo sapiens, UniProt Q92569); test: FP saturation binding assay; settings: protein PIK3R3-N; high-confidence ErbB interactions; mean of replicate hits
T10 construct: 6X His; thioredoxin; made in house; host or cells: E. coli BL21(DE3)pLysS
Summary of the method: as §1

[7] = target: T11, PIK3R3-NC tandem SH2 domains (Homo sapiens, UniProt Q92569); test: FP saturation binding assay; settings: protein PIK3R3-NC; high-confidence ErbB interactions; mean of replicate hits
T11 construct: the tandem protein was included in our analysis with all internal amino acids linking the domains; 6X His; thioredoxin; made in house; host or cells: E. coli BL21(DE3)pLysS
Summary of the method: as §1

PTK6 SH2 domain = target: T12, PTK6 SH2 domain (Homo sapiens, UniProt Q13882); test: FP saturation binding assay; settings: protein PTK6; high-confidence ErbB interactions; mean of replicate hits
T12 construct: from the PTK6 SH2 domain; 6X His; thioredoxin; made in house; host or cells: E. coli BL21(DE3)pLysS
T12 sequence (Q13882 78-170 limits assumed): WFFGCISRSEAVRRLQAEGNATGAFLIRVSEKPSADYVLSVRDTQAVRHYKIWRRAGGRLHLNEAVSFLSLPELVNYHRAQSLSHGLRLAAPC
Summary of the method: as §1

PLCG1-C SH2 domain = target: T13, PLCG1-C SH2 domain (Homo sapiens, UniProt P19174); test: biochemical; type: binding; settings: protein PLCG1-C; high-confidence ErbB interactions; mean of replicate hits
T13 construct: The 6X His-tagged SH2 domain proteins used in the assay, PLCG1-C, SHC4, VAV2; thioredoxin; made in house; host or cells: E. coli BL21(DE3)pLysS
T13 sequence (P19174 668-756 limits assumed): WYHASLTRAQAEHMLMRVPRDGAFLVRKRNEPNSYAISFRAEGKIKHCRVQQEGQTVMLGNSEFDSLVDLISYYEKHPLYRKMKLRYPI

GRAP2 SH2 domain = target: T14, GRAP2 SH2 domain (Homo sapiens, UniProt O75791); test: FP saturation binding assay
T14 sequence (O75791 58-149 limits assumed): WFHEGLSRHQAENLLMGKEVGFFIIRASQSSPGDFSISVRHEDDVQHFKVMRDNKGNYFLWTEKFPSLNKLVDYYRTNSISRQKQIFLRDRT

SH2D2A SH2 domain = SH2D2A SH2 domain (Homo sapiens, UniProt Q9NP31); test: FP saturation binding assay
Chain of SH2D2A SH2 domain (Q9NP31 95-186 limits assumed): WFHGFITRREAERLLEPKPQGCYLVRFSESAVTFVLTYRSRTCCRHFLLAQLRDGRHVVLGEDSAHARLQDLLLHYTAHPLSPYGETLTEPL

## CC[C@H](C)[C@H](NC(=O)[C@H](Cc1c[nH]c2ccccc12)NC(=O)[C@H](CC(C)C)NC(=O)CNC(=O)[C@H](CCCCN)NC(=O)[C@H](Cc1ccc(OP(=O)(O)O)cc1)NC(=O)[C@@H](NC(=O)[C@@H](NC(=O)CNC(=O)[C@@H](N)Cc1ccccc1)[C@@H](C)O)C(C)C)C(=O)N1CCC[C@H]1C(=O)N[C@@H](CCC(=O)O)C(=O)N[C@@H](CC(=O)O)C(=O)O [ErbB1 pY727] (HELM PEPTIDE1{F.G.T.V.[O=C([C@H](Cc1ccc(OP(=O)(O)O)cc1)N[*:1])[*:2]].K.G.L.W.I.P.E.D}$$$$V2.0)
[1]
  Kd: 3150 nM
SH2D1A SH2 domain
  Kd: 2710 nM
SH2D1A SH2 domain; FP saturation assay
  KD range of recruitment of SH2D1A (SHD1A [sic]): in the nM KD range
SH2D1B SH2 domain
  Kd: 240 nM
SH2D1B SH2 domain; FP saturation assay
  KD range of recruitment of SH2D1B: in the nM KD range
[2]
  Kd: 11500 nM

## CC(C)C[C@H](NC(=O)[C@H](Cc1ccc(OP(=O)(O)O)cc1)NC(=O)[C@H](CCC(=O)O)NC(=O)[C@@H]1CCCN1C(=O)[C@H](CC(N)=O)NC(=O)[C@@H](N)CCC(=O)O)C(=O)N[C@H](C(=O)N1CCC[C@H]1C(=O)N[C@@H](CCC(N)=O)C(=O)NCC(=O)NCC(=O)N[C@@H](C)C(=O)N[C@@H](CC(=O)O)C(=O)O)[C@@H](C)O [ErbB2 1196 13-mer]
NCK2 SH2 domain
  Kd: 3720 nM

## CC(C)C[C@H](NC(=O)[C@H](CC(N)=O)NC(=O)[C@H](CC(=O)O)NC(=O)[C@@H](N)Cc1ccccc1)C(=O)N[C@@H](Cc1ccc(OP(=O)(O)O)cc1)C(=O)N[C@@H](Cc1ccc(O)cc1)C(=O)N[C@@H](Cc1c[nH]c2ccccc12)C(=O)N[C@@H](CC(=O)O)C(=O)N[C@@H](CCC(N)=O)C(=O)N[C@@H](CC(=O)O)C(=O)N1CCC[C@H]1C(=O)N1CCC[C@H]1C(=O)N[C@@H](CCC(=O)O)C(=O)N[C@@H](CC(=O)O)C(=O)O [ErbB2 1221 13-mer] (HELM PEPTIDE1{F.D.N.L.[O=C([C@H](Cc1ccc(OP(=O)(O)O)cc1)N[*:1])[*:2]].Y.W.D.Q.D.P.P.E.D}$$$$V2.0)
YES1 SH2 domain; Protein YES1, FP saturation binding, mean over replicate hits
  Kd: 2410 nM
[3]
  Kd: 2270 nM
[4]
  Kd: 11200 nM
RASA1-N SH2 domain [5]
  Kd: 1120 nM
SHC1-PTB domain
  Kd: 1980 nM

## CSCC[C@H](NC(=O)[C@H](Cc1ccc(O)cc1)NC(=O)[C@H](CCC(=O)O)NC(=O)[C@H](Cc1ccc(OP(=O)(O)O)cc1)NC(=O)[C@H](CC(=O)O)NC(=O)[C@H](CCC(=O)O)NC(=O)[C@H](CC(=O)O)NC(=O)[C@@H]1CCCN1)C(=O)N[C@@H](CC(N)=O)C(=O)N[C@@H](CCCNC(=N)N)C(=O)N[C@@H](CCC(N)=O)C(=O)N[C@@H](CCCNC(=N)N)C(=O)N[C@@H](CC(=O)O)C(=O)O [ErbB3 pY1260] (HELM PEPTIDE1{P.D.E.D.[O=C([C@H](Cc1ccc(OP(=O)(O)O)cc1)N[*:1])[*:2]].E.Y.M.N.R.Q.R.D}$$$$V2.0)
GRB7 SH2 domain
  Kd: ≤ 100 nM
RASA1-N SH2 domain [5]; read-out: Ki ( exp FP), competing peptide, RASA1N, Ki expected from FP, NI = no interaction
  Ki: > 20000 nM
RASA1-N SH2 domain [6]
  Ki: 38800 nM

## CC[C@H](C)[C@H](NC(=O)[C@@H](N)CCC(=O)O)C(=O)NCC(=O)N[C@@H](Cc1c[nH]cn1)C(=O)N[C@@H](CO)C(=O)N1CCC[C@H]1C(=O)N1CCC[C@H]1C(=O)N1CCC[C@H]1C(=O)N[C@@H](C)C(=O)N[C@@H](Cc1ccc(OP(=O)(O)O)cc1)C(=O)N[C@H](C(=O)N1CCC[C@H]1C(=O)N[C@@H](CCSC)C(=O)N[C@@H](CO)C(=O)NCC(=O)N[C@@H](CC(N)=O)C(=O)N[C@@H](CCC(N)=O)C(=O)N[C@@H](CC(=O)O)C(=O)O)[C@@H](C)O [ErbB4 1056 18-mer] (HELM PEPTIDE1{E.I.G.H.S.P.P.P.A.[O=C([C@H](Cc1ccc(OP(=O)(O)O)cc1)N[*:1])[*:2]].T.P.M.S.G.N.Q.D}$$$$V2.0)
SRC SH2 domain; FP
  Kd: 9470 nM

## CC(C)C[C@H](NC(=O)[C@H](Cc1ccc(O)cc1)NC(=O)[C@H](CC(C)C)NC(=O)[C@@H]1CCCN1C(=O)[C@H](CCC(=O)O)NC(=O)[C@H](CC(N)=O)NC(=O)[C@@H](NC(=O)[C@H](Cc1ccc(OP(=O)(O)O)cc1)NC(=O)[C@H](CCC(=O)O)NC(=O)[C@H](CC(=O)O)NC(=O)[C@H](CCC(=O)O)NC(=O)[C@H](C)NC(=O)[C@H](CCCCN)NC(=O)[C@@H]1CCCN1C(=O)[C@@H]1CCCN1C(=O)CNC(=O)[C@@H](N)CC(N)=O)C(C)C)C(=O)N[C@@H](CC(=O)O)C(=O)O [ErbB4 1202 18-mer] (HELM PEPTIDE1{N.G.P.P.K.A.E.D.E.[O=C([C@H](Cc1ccc(OP(=O)(O)O)cc1)N[*:1])[*:2]].V.N.E.P.L.Y.L.D}$$$$V2.0)
PIK3R1-N SH2 domain
  Kd: 5390 nM
PIK3R3-N SH2 domain
  Kd: 2410 nM
[7]
  Kd: 1210 nM
PTK6 SH2 domain
  Kd: 2040 nM
SRC SH2 domain
  Kd: 2300 nM
YES1 SH2 domain; protein YES1, mean of replicate hits
  Kd: 8400 nM
PLCG1-C SH2 domain
  Kd: 1920 nM
GRAP2 SH2 domain
  Kd: 2290 nM
[4]
  Kd: 1840 nM
SH2D2A SH2 domain
  Kd: 6000 nM
